Assay results published in US20210154161A1, “MODIFIED-RELEASE BUCILLAMINE COMPOSITIONS, KITS, AND METHODS FOR TREATING CYSTINURIA, ARTHRITIS, GOUT, AND RELATED DISORDERS” (ALTIBIO, INC., priority 2017, published 2021).
Each block holds one molecule with its values, some of them ahead of it.

Tests used:
[1] = Short- and long-term stability of bucillamine in Beagle dog plasma; assay type: in vitro ADME
Procedure: (§1) Stability Testing: Finally, short-term and long-term stability of bucillamine in Beagle dog plasma, pre-crashed plasma (plasma supernatant), and urine were assessed using two bucillamine concentrations (50 ng/mL or 500 ng/mL) under each of the following two conditions: (1) storage on the bench top for 4 hours and (2) frozen at −80° C. for up to one month. Samples were considered stable if their concentrations were within ±20% of nominal. These samples met acceptable criteria for stability and results are presented below, in Tables 5, 6, and 7, showing the % bucillamine remaining in Beagle dog plasma (Table 5), plasma supernatant (Table 6), and urine (Table 7).

[2] = Short- and long-term stability of bucillamine in Beagle dog urine; assay type: in vitro ADME
Procedure: (§2) For the analysis, analytical stock solutions (1.00 mg/mL of the free drug) were prepared in DMSO. Also, three standards for use in the analysis were prepared in each of the following media, as follows: (1) in male Beagle plasma containing sodium heparin as the anticoagulant; (2) in Beagle plasma that had previously been treated with acetonitrile to precipitate and remove plasma proteins (the […] supernatant was diluted with acetonitrile (3:1 acetonitrile:plasma supernatant) to give pre-crashed Beagle plasma supernatant); and (3) in 10× diluted Beagle urine, diluted in water. The term “pre-crashed plasma” refers to plasma supernatant, obtained in the centrifugation step described above.
Samples were considered stable if their concentrations were within ±20% of nominal. These samples met acceptable criteria for stability and results are presented below, in Tables 5, 6, and 7, showing the % bucillamine remaining in Beagle dog plasma (Table 5), plasma supernatant (Table 6), and urine (Table 7).

[3] = Total bucillamine plasma concentration after oral or intraduodenal dosing regimens; assay type: in vivo, male Beagle dogs; details: n=3 dogs
Procedure: (§3) The objective of this study was to evaluate total and free plasma bucillamine, and urinary bucillamine, in male Beagle dogs following oral and intraduodenal administration of bucillamine, according to various dose regimens, to determine whether different regimens, simulating modified release in accordance with the present invention, would improve drug pharmacokinetics. Specifically, bucillamine formulations were administered to deliver 30 mg/kg per dog via single or multiple doses divided over a 12-hour period; and blood and urine samples then collected at different times post-dose.
(§4) Bucillamine formulations were administered to provide 30 mg/kg per dog according to five different dosage regimens (Leg 1, Leg 2, Leg 3, Leg 4, and Leg 5), as set forth in the table below. Leg 2, Leg 3, and Leg 4 (also referred to as Q6H, Q3H, and Q2H, respectively) were designed to simulate modified-release formulations, in accordance with certain embodiments of the present invention. Following administration, blood and urine samples were collected at the time points, or over the time intervals, also as indicated below.
(§5) Preparation of Dosing Formulations: Capsules for Legs 1-5 were prepared and filled on the day of dosing, as follows. For Legs 1, 2, and 5, bucillamine was dry mixed with avicel and mannitol to make a 40:30:30 mixture of bucillamine to avicel to mannitol, respectively; for study Legs 3 and 4, a 20:40:40 mixture of bucillamine to avicel to mannitol, respectively, was prepared. The dry mixes were custom filled with the appropriate amount of powder to deliver the specified doses to each dog based, on their respective body weights.
(§6) Animal Dosing and Sample Collection: This non-clinical study followed established practices and standard operating procedures of Absorption Systems and Absorption Systems Inc., as well as the study protocol. Study groups each included three dogs. The dogs were housed one per cage. For Legs 1-4, the dogs were fasted for at least six hours prior to each administration of the formulation. For Legs 1-4, food was given approximately ten hours post initial dosing. Animals had free access to water throughout the study. For Leg 5, the dogs were fasted for at least sixteen hours prior to each administration of the formulation. For Leg 5, food was given approximately eight hours post initial dosing. Animals had free access to water throughout the study. Additionally, each dog received a 60 mL subcutaneous injection of saline (a 30 mL injection, into each two different sites) approximately 30 minutes prior to dosing, for hydration.
(§7) Intraduodenal (ID) administration: Animals were anesthetized by a slow IV infusion of Propofol (6-10 mg/kg), or with an intramuscular injection of a cocktail containing ketamine (approximately 10-20 mg/kg), diazepam (3 mg/kg), and acepromazine (0.05 mg/kg) given IM about 5-10 minutes before intubation. Once animals were confirmed adequately anesthetized, they were intubated and maintained using isoflurane (approximately 1-5% in oxygen 1 to 4 L/min) as necessary until dosing was complete. Formulations were administered into the proximal duodenum via endoscopic guidance to verify the dosing site. The endoscope first was maneuvered into the pyloric sphincter with camera visualization of the proximal duodenum. Once there was confirmation that the endoscope was placed between the pylorus and proximal duodenum, the test article was delivered to the proximal duodenum followed by a 5 mL flush. […]

[4] = Example 5: urine cystine in cystinuria dogs, simulated extended-release bucillamine; assay type: in vivo; details: enterically-coated bucillamine 8 times/day, same total daily dosage
Procedure: This Example describes a study to confirm the feasibility of reducing cystine levels in the urine of cystinuria dogs receiving more frequent and lower doses of bucillamine, in a dosing schedule designed to simulate the extended release formulations of the present invention, compared to urine cystine levels in cystinuria dogs receiving non-coated bucillamine. Study Design: Subject dogs are dosed as follows: Day 1: […] Day 2: Repeat Day 1 Day 3: No treatment Day 4: No treatment Day 5: To simulate extended-release, enterically-coated bucillamine is orally administered at lower dose, 8 times/day (i.e., every three hours), to provide a total daily dosage equal to that used in Days 1 and 2. A simple enteric coating is used that avoids release in the stomach. Also, 24 hour urine cystine capacity is measured, that is, all urine over a 24-hour period, starting from the time of the first dose, is collected and used to measure urinary cystine concentration. Day 6: Repeat Day 5

[5] = Free bucillamine plasma concentration after oral or intraduodenal dosing regimens; assay type: in vivo, male Beagle dogs; details: for maximum plasma concentrations of free bucillamine (average): n=3 dogs
Procedure: as §3, §4, §5, §6
as §7, with “flush. Upon completion of the dosing, the animals were taken off the isoflurane and allowed to recover from anesthesia. Time points began upon completion of the entire dose procedure. Following each blood sampling time point, 15 mL of water was given to each dog via syringe. Approximately 30 minutes prior to the 0 hour blood collection, each dog received a subcutaneous injection of 60 mL of saline (a 30 mL injection into each of two different sites) for hydration.” for “flush.”

[6] = Bucillamine urinary recovery after oral or intraduodenal dosing regimens; assay type: in vivo, male Beagle dogs; details: for % of the dose (unchanged drug) found in urine, on average: n=3 dogs
Procedure: as §3, §4, §5, §6
as §7, with “flush. Upon completion of the dosing, the animals were taken off the isoflurane and allowed to recover from anesthesia. Time points began upon completion of the entire dose procedure. Following each blood sampling time point, 15 mL of water was given to each dog via syringe. Approximately 30 minutes prior to the 0 hour blood collection, each dog received a subcutaneous injection of 60 mL of saline (a 30 mL injection into each of two different sites) for hydration.” for “flush.”

[7] = Example 3: cystine stone formation in cystinuria patients, about 1 week; assay type: in vivo, human; details: Days 2-8, enterically-coated bucillamine oral 100 mg x 8 or x 12 times/day
Procedure: This Example describes a study to confirm the improved efficacy of reducing cystine stone formation in cystinuria patients who develop at least one stone per week using standard Thiola® dosing. Study Design: […] The patients are dosed as follows: Day 1: No treatment; an X-ray is taken of the kidney and bladder. Days 2-8: To simulate extended release, enterically-coated bucillamine is orally administered at either 100 mg x 8 times/day (i.e., every three hours) or 100 mg x 12 times/day (i.e., every two hours). A simple enteric coating is used that avoids release in the stomach. Also, 24 hour urine cystine capacity is measured, that is, all urine over a 24-hour period, starting from the time of the first dose, is collected and used to measure urinary cystine concentration. Day 8: X-ray examination of Day 1 is repeated.

[8] = majority of patients; 1,800 mg bucillamine over 7 days; 72 hours post-dose; without rescue drug; cited from earlier work
[9] = Short- and long-term stability of bucillamine in Beagle dog plasma supernatant (pre-crashed plasma); assay type: in vitro ADME
Procedure: as §2, §1

[10] = cited from earlier work
[11] = cited from earlier work; remark: listed apart in the source
[12] = cystinuria patients; cited from earlier work
[13] = cited from earlier work; remark: listed apart in the source
[14] = 50 ng/mL (low), -80 C freezer for 1 week
[15] = 50 ng/mL (low), bench top (RT) for 4 hours
[16] = 500 ng/mL (high), -80 C freezer for 1 week
[17] = 500 ng/mL (high), bench top (RT) for 4 hours
[18] = Leg 1 (Q12H): PO, single 30 mg/kg dose
[19] = Leg 2: PO 30 mg/kg as two 15 mg/kg doses at 0 and 6 h
[20] = Leg 3 (Q3H): PO 30 mg/kg as four 7.5 mg/kg doses at 0, 3, 6, 9 h
[21] = Leg 4: PO 30 mg/kg as six 5 mg/kg doses at 0, 2, 4, 6, 8, 10 h
[22] = Leg 5: ID, single 30 mg/kg dose

- % Bucillamine Remaining in Beagle Dog Plasma [1, 14]: 114%
- % Bucillamine Remaining in Beagle Dog Plasma ([1]; 50 ng/mL (low), -80 C freezer for 2 weeks): 108%
- % Bucillamine Remaining in Beagle Dog Plasma ([1]; 50 ng/mL (low), -80 C freezer for 4 weeks): 114%
- % Bucillamine Remaining in Beagle Dog Plasma [1, 15]: 110%
- % Bucillamine Remaining in Beagle Dog Plasma [1, 16]: 96.4%
- % Bucillamine Remaining in Beagle Dog Plasma ([1]; 500 ng/mL (high), -80 C freezer for 2 weeks): 97.3%
- % Bucillamine Remaining in Beagle Dog Plasma ([1]; 500 ng/mL (high), -80 C freezer for 4 weeks): 107%
- % Bucillamine Remaining in Beagle Dog Plasma [1, 17]: 96.9%
- % Bucillamine Remaining in Beagle Dog Urine ([2]; High (2500 ng/mL), -80 C freezer for 1 week): 102%
- % Bucillamine Remaining in Beagle Dog Urine ([2]; High (2500 ng/mL), -80 C freezer for 2 week): 101%
- % Bucillamine Remaining in Beagle Dog Urine ([2]; High (2500 ng/mL), -80 C freezer for 4 week): 96.3%
- % Bucillamine Remaining in Beagle Dog Urine ([2]; High (2500 ng/mL), bench top (RT) for 4 hours): 102%
- % Bucillamine Remaining in Beagle Dog Urine ([2]; Low (250 ng/mL), -80 C freezer for 1 week): 97.7%
- % Bucillamine Remaining in Beagle Dog Urine ([2]; Low (250 ng/mL), -80 C freezer for 2 week): 90.9%
- % Bucillamine Remaining in Beagle Dog Urine ([2]; Low (250 ng/mL), -80 C freezer for 4 week): 88.9%
- % Bucillamine Remaining in Beagle Dog Urine ([2]; Low (250 ng/mL), bench top (RT) for 4 hours): 93.7%
- maximum plasma concentrations of total bucillamine (average) [3, 18]: 24400 ± 8253 ng/mL
- maximum plasma concentrations of total bucillamine (average) [3, 19]: 33533 ± 2139 ng/mL
- maximum plasma concentrations of total bucillamine (average) [3, 20]: 25133 ± 3500 ng/mL
- maximum plasma concentrations of total bucillamine (average) [3, 21]: 23800 ± 819 ng/mL
- maximum plasma concentrations of total bucillamine (average) ([3]; Leg 5 (Q12H): ID, single 30 mg/kg dose): 19940 ± 11015 ng/mL
- time at which maximum plasma concentrations of free bucillamine were observed [5, 18]: 2 hours post dosing
- maximum plasma concentrations of free bucillamine (average) [5, 18]: 2437 ± 728 ng/mL
- maximum plasma concentrations of free bucillamine (average) [5, 19]: 3957 ± 1226 ng/mL
- maximum plasma concentrations of free bucillamine (average) [5, 20]: 4327 ± 1127 ng/mL
- maximum plasma concentrations of free bucillamine (average) [5, 21]: 1820 ± 471 ng/mL
- maximum plasma concentrations of free bucillamine (average) [5, 22]: 1187 ± 656 ng/mL
- % of the dose (unchanged drug) found in urine, on average ([6]; Leg 1: PO, single 30 mg/kg dose): 57.3±25.8%
- % of the dose (unchanged drug) found in urine, on average [6, 19]: 54.5±6.63%
- % of the dose (unchanged drug) found in urine, on average [6, 20]: 25.8±14.0%
- % of the dose (unchanged drug) found in urine, on average [6, 21]: 16.1±5.65%
- % of the dose (unchanged drug) found in urine, on average [6, 22]: 20.2±7.51%
- share of the drug recovered in urine excreted within the first 4 hours ([6]; Q12H schedule, PO single 30 mg/kg dose, FIG. 22, n=2 dogs): 80%
- % Bucillamine Remaining in Beagle Dog Plasma Supernatant [9, 14]: 94.3%
- % Bucillamine Remaining in Beagle Dog Plasma Supernatant ([9]; 50 ng/mL (low), -80 C freezer for 2 week): 99.1%
- % Bucillamine Remaining in Beagle Dog Plasma Supernatant ([9]; 50 ng/mL (low), -80 C freezer for 4 week): 107%
- % Bucillamine Remaining in Beagle Dog Plasma Supernatant [9, 15]: 105%
- % Bucillamine Remaining in Beagle Dog Plasma Supernatant [9, 16]: 97.2%
- % Bucillamine Remaining in Beagle Dog Plasma Supernatant ([9]; 500 ng/mL (high), -80 C freezer for 2 week): 110%
- % Bucillamine Remaining in Beagle Dog Plasma Supernatant ([9]; 500 ng/mL (high), -80 C freezer for 4 week): 119%
- % Bucillamine Remaining in Beagle Dog Plasma Supernatant [9, 17]: 117%
Structure (SMILES): CC(C)(S)C(=O)N[C@@H](CS)C(=O)O [bucillamine, N-(2-mercapto-2-methylpropionyl)-L-cysteine]
- urine cystine levels over Days 5-6 compared with Days 1-2 of uncoated (immediate-release) dosing [4]: consistently lower
- additional cystine stones on X-ray of Day 8 compared to Day 1 [7]: no additional stones
- reduction in target joint pain scores from baseline [8]: at least 50%

Structure (SMILES): CC(S)C(=O)NCC(=O)O (stereo not drawn) [tiopronin, alpha-mercaptopropionylglycine]
- cases/patients in which the drug is discontinued ([10]; due to adverse reactions, need for frequent dosing, poor efficacy): about 30%
- cystinuria patients failed by the medication (continue forming stones) ([10]; human, in vivo): 85%
- patients who achieve and maintain therapeutic success ([10]; human, in vivo): 15%
- period of effectiveness in reducing cystine urine levels ([10]; human, in vivo): 2 to 4 h
- time of primary urine excretion wave after oral administration ([11]; immediate-release tiopronin, oral): 3 to 4 h
- time after administration at which urine excretion of free tiopronin and mixed-sulfide tiopronin mostly occurs ([11]; in vivo): 2 to 4 h
- free tiopronin excreted in urine within 2 hours of administration ([11]; within 2 hours of Thiola administration): ≤ 95%

Structure (SMILES): CC(C)(S)[C@@H](N)C(=O)O [D-penicillamine]
- patients with severe side effects / who cannot tolerate the drug [12]: 50-70%
- solubility of the di-sulfide complex formed, relative to cystine [13]: 50 times
